The kinase profiling compilation of Christmann-Franck et al. (2016)

Key:
Assay in all cases: KINOMEscan competition binding
Conditions in all cases: compound 0.5 µM
NEK3 (human) = NEK3 (human) (UniProt P51956)
PTK2B (human) = PTK2B (human) (UniProt Q14289)
MERTK (human) = MERTK (human) (UniProt Q12866)
CSNK1A1 (human) = CSNK1A1 (human) (UniProt P48729)
CAMK1G (human) = CAMK1G (human) (UniProt Q96NX5)
PRPF4B (human) = PRPF4B (human) (UniProt Q13523)
[1] = system: PIK3CA (human), P42336 [E545K]
[2] = system: PIK3CA (human), P42336 [H1047Y]
Chain of PIK3CA (human), P42336 [H1047Y] (P42336 whole entry H1047Y, looked up): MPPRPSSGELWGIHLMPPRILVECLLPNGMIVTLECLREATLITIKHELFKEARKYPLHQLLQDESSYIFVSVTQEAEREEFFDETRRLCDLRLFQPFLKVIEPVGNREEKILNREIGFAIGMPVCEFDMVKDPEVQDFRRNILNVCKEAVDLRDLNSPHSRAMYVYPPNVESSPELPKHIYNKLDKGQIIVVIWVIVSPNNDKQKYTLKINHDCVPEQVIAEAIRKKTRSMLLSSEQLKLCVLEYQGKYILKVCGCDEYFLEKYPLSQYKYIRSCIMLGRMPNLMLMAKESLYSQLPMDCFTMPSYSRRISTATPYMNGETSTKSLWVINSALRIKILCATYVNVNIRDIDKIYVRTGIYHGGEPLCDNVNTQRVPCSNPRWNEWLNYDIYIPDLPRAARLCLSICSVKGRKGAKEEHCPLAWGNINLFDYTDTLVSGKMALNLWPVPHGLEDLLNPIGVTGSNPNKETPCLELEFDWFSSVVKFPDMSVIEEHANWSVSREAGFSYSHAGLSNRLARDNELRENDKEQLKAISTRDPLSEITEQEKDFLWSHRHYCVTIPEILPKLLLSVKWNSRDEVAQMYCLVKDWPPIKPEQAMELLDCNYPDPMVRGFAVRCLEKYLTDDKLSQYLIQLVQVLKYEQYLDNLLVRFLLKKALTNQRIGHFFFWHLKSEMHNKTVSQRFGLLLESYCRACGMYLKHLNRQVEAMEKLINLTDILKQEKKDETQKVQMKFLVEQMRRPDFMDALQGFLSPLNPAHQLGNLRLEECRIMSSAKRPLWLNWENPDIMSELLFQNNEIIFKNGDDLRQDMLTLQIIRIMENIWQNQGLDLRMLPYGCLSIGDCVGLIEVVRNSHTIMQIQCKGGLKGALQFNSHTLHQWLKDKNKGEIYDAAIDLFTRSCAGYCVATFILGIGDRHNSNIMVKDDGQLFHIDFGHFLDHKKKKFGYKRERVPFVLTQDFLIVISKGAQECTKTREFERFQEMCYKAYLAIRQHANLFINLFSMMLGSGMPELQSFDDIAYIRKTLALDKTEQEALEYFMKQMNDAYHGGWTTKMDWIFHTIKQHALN

MYLK3 (human) = MYLK3 (human) (UniProt Q32MK0)
SYK (human) = SYK (human) (UniProt P43405)
[3] = system: MET (human), P08581 [M1250T]
KIT (human) = KIT (human) (UniProt P10721)
TNIK (human) = TNIK (human) (UniProt Q9UKE5)
TGFBR2 (human) = TGFBR2 (human) (UniProt P37173)
NEK2 (human) = NEK2 (human) (UniProt P51955)
CDK19 (human) = CDK19 (human) (UniProt Q9BWU1)
PIK3CG (human) = PIK3CG (human) (UniProt P48736)
STK33 (human) = STK33 (human) (UniProt Q9BYT3)
MAP2K6 (human) = MAP2K6 (human) (UniProt P52564)
PRKACB (human) = PRKACB (human) (UniProt P22694)
CDK9 (human) = CDK9 (human) (UniProt P50750)
FER (human) = FER (human) (UniProt P16591)
Chain of FER (human) (P16591 whole entry, looked up): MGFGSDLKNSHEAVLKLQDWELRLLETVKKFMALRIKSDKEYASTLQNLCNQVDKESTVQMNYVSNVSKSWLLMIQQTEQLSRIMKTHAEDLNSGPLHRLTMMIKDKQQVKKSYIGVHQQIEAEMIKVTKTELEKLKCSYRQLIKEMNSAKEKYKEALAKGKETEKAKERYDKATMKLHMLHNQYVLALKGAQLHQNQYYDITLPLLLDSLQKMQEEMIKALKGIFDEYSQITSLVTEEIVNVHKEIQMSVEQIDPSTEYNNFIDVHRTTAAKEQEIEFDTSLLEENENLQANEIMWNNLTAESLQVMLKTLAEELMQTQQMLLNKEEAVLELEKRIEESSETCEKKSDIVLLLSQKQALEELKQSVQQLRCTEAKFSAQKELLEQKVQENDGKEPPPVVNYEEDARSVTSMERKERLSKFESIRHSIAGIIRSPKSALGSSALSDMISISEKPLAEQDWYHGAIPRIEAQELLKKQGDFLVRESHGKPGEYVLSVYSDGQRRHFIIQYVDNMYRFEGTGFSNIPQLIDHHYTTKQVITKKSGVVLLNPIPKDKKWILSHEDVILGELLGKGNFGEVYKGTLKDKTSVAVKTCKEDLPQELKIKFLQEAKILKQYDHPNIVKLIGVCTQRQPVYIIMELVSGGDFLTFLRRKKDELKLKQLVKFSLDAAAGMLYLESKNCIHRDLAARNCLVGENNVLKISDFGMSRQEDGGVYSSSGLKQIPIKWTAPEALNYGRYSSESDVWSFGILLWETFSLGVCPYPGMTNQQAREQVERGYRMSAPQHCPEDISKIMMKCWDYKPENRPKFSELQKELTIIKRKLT

NTRK3 (human) = NTRK3 (human) (UniProt Q16288)
[4] = biological target: JAK1 JH1 catalytic (human) (UniProt P23458)
Chain of JAK1 JH1 catalytic (human) (P23458 whole entry, looked up): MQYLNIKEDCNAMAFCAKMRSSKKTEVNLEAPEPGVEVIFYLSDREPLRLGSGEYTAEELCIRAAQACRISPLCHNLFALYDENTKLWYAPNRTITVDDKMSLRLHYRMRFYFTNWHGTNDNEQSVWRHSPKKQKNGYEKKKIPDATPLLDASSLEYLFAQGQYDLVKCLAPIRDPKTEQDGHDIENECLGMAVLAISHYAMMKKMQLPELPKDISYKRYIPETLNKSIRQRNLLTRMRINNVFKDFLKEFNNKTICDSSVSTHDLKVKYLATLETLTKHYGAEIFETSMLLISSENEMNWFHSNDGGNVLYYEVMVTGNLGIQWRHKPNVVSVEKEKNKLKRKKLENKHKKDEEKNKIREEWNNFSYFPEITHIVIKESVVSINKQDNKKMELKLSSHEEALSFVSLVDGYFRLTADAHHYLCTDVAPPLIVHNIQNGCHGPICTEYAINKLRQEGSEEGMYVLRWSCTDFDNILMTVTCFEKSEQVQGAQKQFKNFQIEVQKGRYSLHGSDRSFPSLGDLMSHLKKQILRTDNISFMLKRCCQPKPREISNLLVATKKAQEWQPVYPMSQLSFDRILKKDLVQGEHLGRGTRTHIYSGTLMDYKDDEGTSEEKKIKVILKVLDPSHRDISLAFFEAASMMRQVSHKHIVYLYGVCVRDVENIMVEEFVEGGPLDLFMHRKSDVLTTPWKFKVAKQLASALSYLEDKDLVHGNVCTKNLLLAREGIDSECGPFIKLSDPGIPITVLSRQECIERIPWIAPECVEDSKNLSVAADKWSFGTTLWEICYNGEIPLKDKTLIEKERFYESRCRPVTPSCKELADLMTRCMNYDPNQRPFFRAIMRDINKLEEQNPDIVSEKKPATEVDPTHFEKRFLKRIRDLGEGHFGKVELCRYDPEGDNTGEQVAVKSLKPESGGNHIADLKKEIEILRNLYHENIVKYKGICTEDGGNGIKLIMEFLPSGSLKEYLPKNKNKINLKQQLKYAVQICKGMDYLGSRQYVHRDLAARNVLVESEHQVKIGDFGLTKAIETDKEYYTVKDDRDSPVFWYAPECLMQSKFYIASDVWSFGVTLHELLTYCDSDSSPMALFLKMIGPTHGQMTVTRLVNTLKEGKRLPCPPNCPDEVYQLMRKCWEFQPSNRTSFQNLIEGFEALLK

PIP5K1C (human) = PIP5K1C (human) (UniProt O60331)
[5] = system: RET (human), P07949 [M918T]
PDPK1 (human) = PDPK1 (human) (UniProt O15530)
DAPK1 (human) = DAPK1 (human) (UniProt P53355)
FLT3 (human) = FLT3 (human) (UniProt P36888)
Chain of FLT3 (human) (P36888 whole entry, looked up): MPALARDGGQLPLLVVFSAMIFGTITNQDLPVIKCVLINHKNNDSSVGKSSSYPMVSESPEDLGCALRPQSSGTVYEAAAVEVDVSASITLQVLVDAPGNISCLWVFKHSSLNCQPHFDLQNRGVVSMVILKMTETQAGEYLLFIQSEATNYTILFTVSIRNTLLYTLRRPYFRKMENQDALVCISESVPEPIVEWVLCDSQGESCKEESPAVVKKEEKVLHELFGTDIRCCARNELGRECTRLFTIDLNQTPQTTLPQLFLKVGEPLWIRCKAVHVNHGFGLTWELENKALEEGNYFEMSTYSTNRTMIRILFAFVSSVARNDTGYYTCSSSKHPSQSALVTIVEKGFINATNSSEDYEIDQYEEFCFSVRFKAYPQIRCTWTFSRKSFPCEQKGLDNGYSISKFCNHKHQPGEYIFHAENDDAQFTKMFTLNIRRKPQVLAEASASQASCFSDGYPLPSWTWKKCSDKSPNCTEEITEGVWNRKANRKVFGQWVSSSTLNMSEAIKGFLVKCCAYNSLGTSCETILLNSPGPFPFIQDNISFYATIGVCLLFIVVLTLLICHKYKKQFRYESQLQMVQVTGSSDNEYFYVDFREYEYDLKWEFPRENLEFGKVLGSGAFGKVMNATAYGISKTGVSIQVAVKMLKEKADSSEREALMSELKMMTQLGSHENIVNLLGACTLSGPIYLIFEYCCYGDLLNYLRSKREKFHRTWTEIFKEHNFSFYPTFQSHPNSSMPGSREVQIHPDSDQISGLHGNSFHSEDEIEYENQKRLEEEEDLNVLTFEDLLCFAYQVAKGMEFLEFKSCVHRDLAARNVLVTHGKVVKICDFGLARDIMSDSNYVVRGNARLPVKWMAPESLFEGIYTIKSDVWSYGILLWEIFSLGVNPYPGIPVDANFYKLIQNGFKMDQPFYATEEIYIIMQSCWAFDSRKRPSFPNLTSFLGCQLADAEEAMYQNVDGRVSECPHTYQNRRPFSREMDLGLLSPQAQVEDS

DMPK (human) = DMPK (human) (UniProt Q09013)
STK39 (human) = STK39 (human) (UniProt Q9UEW8)
YSK4 (human) = YSK4 (human) (UniProt Q56UN5)
CDKL3 (human) = CDKL3 (human) (UniProt Q8IVW4)
Chain of CDKL3 (human) (Q8IVW4 whole entry, looked up): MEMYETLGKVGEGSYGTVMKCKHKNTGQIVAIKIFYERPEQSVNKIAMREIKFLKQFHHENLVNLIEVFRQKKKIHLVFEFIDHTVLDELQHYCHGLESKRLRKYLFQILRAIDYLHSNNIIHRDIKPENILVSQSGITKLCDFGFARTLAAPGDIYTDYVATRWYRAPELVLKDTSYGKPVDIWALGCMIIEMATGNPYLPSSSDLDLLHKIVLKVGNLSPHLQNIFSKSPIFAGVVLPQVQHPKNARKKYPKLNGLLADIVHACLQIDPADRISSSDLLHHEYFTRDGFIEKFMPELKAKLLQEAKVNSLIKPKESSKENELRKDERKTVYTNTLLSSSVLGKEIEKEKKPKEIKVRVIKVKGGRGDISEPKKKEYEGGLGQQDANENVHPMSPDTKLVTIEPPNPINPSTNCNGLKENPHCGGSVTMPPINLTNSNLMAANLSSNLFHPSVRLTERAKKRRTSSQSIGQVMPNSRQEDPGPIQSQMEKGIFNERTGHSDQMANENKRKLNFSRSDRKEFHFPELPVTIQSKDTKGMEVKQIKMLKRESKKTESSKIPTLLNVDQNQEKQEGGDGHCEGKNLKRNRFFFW

PIK3CA (human) = PIK3CA (human) (UniProt P42336)
Chain of PIK3CA (human) (P42336 whole entry, looked up): as the sequence (P42336 whole entry H1047Y, looked up) above, with Y1047H counted along it

CDK7 (human) = CDK7 (human) (UniProt P50613)
Chain of CDK7 (human) (P50613 whole entry, looked up): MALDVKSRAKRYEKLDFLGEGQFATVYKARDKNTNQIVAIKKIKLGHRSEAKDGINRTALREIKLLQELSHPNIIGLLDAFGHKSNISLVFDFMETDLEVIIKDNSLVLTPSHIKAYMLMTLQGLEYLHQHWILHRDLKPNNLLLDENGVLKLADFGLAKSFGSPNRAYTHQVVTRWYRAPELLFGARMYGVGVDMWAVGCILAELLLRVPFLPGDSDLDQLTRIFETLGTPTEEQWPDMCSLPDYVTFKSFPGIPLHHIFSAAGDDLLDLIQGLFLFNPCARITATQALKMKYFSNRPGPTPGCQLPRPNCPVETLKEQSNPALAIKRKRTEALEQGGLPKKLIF

MAP3K7 (human) = MAP3K7 (human) (UniProt O43318)
TESK1 (human) = TESK1 (human) (UniProt Q15569)
HIPK2 (human) = HIPK2 (human) (UniProt Q9H2X6)
HIPK1 (human) = HIPK1 (human) (UniProt Q86Z02)
STK4 (human) = STK4 (human) (UniProt Q13043)
LATS1 (human) = LATS1 (human) (UniProt O95835)
CASK (human) = CASK (human) (UniProt O14936)

Chain of PIK3CA (human), P42336 [E545K] (P42336 whole entry E545K, looked up): as the sequence (P42336 whole entry H1047Y, looked up) above, with E545K, Y1047H counted along it

Cn1c2ccccc2c2c3c(c4c5ccccc5n(CCC#N)c4c21)CNC3=O
kinase still bound, per cent of control (NEK3 (human)): 100% | kinase still bound, per cent of control (PTK2B (human)): 19% | kinase still bound, per cent of control (MERTK (human)): 89% | kinase still bound, per cent of control (CSNK1A1 (human)): 100% | kinase still bound, per cent of control (CAMK1G (human)): 66% | kinase still bound, per cent of control (PRPF4B (human)): 12% | kinase still bound, per cent of control [1]: 100% | kinase still bound, per cent of control [2]: 100% | kinase still bound, per cent of control (MYLK3 (human)): 100% | kinase still bound, per cent of control (SYK (human)): 2.4% | kinase still bound, per cent of control [3]: 100% | kinase still bound, per cent of control (KIT (human)): 81% | kinase still bound, per cent of control (TNIK (human)): 0.3% | kinase still bound, per cent of control (TGFBR2 (human)): 100% | kinase still bound, per cent of control (NEK2 (human)): 100% | kinase still bound, per cent of control (CDK19 (human)): 91% | kinase still bound, per cent of control (PIK3CG (human)): 3.1% | kinase still bound, per cent of control (STK33 (human)): 1.5% | kinase still bound, per cent of control (MAP2K6 (human)): 15% | kinase still bound, per cent of control (PRKACB (human)): 67% | kinase still bound, per cent of control (CDK9 (human)): 100% | kinase still bound, per cent of control (FER (human)): 3.2% | kinase still bound, per cent of control (NTRK3 (human)): 0.15% | kinase still bound, per cent of control [4]: 10% | kinase still bound, per cent of control (PIP5K1C (human)): 100% | kinase still bound, per cent of control [5]: 0.15% | kinase still bound, per cent of control (PDPK1 (human)): 41% | kinase still bound, per cent of control (DAPK1 (human)): 78% | kinase still bound, per cent of control (FLT3 (human)): 1.4% | kinase still bound, per cent of control (DMPK (human)): 100% | kinase still bound, per cent of control (STK39 (human)): 76% | kinase still bound, per cent of control (YSK4 (human)): 0% | kinase still bound, per cent of control (CDKL3 (human)): 91% | kinase still bound, per cent of control (PIK3CA (human)): 100% | kinase still bound, per cent of control (CDK7 (human)): 84% | kinase still bound, per cent of control (MAP3K7 (human)): 8% | kinase still bound, per cent of control (TESK1 (human)): 43% | kinase still bound, per cent of control (HIPK2 (human)): 15% | kinase still bound, per cent of control (HIPK1 (human)): 32% | kinase still bound, per cent of control (STK4 (human)): 5.4% | kinase still bound, per cent of control (LATS1 (human)): 31% | kinase still bound, per cent of control (CASK (human)): 72%
